For this test, the system named is breast and ovarian cancer cells. The test is described as follows: CCK-8 cell proliferation/viability at fixed concentration. The format is cell-based, human. The settings on record: 48 or 72 h. The protocol: Cell viability assay was performed as described before. Briefly, 2500/well of breast or ovarian cancer cells were seeded into a 96-well plate; grown overnight; treated with indicated concentration of Olaparib, LY2835219, ZC22, LP-1, GC-24, or cisplatin alone or together for an indicated amount of time; and then incubated with Cell Counting kit-8 (CCK-8) substrate (Dojindo, Kumamoto, Kyushu Island, Japan) for 1–2 h at 37 °C. Cell viability was calculated by the absorbance at 450 nm measured by the GloMax Explorer (Promega, Madison, WI, USA). Cells without treatment were set as 100%, and medium control (no cells) was set as 0%.
Figure 2 ZC-22 suppresses proliferation of breast and ovarian cancer cells. (A) IC50 of ZC-22, Olaparib, and LY2835219 (Abemaciclib) in breast and ovarian cancer cells. […] Cell proliferation was analyzed by CCK-8 assays. […] Cell proliferation assay was analyzed by CCK-8 assays. […]
Figure 5 ZC-22 increases the sensitivity of breast and ovarian cancer cells to cisplatin. […] Representative pictures of EdU staining are shown in the left panels, and quantification of percentage of EdU-positive cells was presented in the bar graphs on the right, n = 3. […] (D) Representative pictures (left) and quantification of percentage (right) of γH2A.X-positive cells in MDA-MB-231 (top panels) and OVCAR5 (bottom panels) cells treated with DDP alone or together with OLA or ZC-22 for 24 h, n = 3. […]

This is an account of results in publication PMC8911181, “A Novel CDK4/6 and PARP Dual Inhibitor ZC-22 Effectively Suppresses Tumor Growth and Improves the Response to Cisplatin Treatment in Breast and Ovarian Cancer” (International Journal of Molecular Sciences, 2022).

Each structure is given as a SMILES string.

As to `Cc1nc2c(F)cc(-c3nc(Nc4ccc(N5CCN(C(=O)c6cc(Cc7n[nH]c(=O)c8ccccc78)ccc6F)CC5)cn4)ncc3F)cc2n1C(C)C` [ZC-22, 4-(4-fluoro-3-(4-(6-((5-fluoro-4-(4-fluoro-1-isopropyl-2-methyl-1H-benzo[d]imidazole-6-yl)pyrimidin-2-yl)amino)pyridin-3-yl)piperazine-1-carbonyl)benzyl)phthalazin-1(2H)-one], the “growth inhibition compared with Olaparib and Abemaciclib alone and combined” value (MDA-MB-231 2 μM, SUM-159, OVCAR5, SKOV3 0.5 μM) was “better anti-tumor efficacy than the Olaparib and Abemaciclib monotherapy, and the combination therapy”. Besides, under “cisplatin 2.5 μM (SKOV3 5 μM) together with 2 μM or 0.5 μM compound”, the “sensitization of cells to cisplatin (cell viability)” value was “greatly sensitized breast and ovarian cancer cells to cisplatin”.
